Drawing on US11230526B1, “Cylcoalkenyl derivatives useful as agonists of the GPR120 and/or GPR40 receptors” (Janssen Pharmaceutica NV, priority 2018, dated 2022), this text covers EC50 for 26 compounds.

Holding throughout (format): cell-based
The target in experiment [1] is T1, Human GPR120 short form (Homo sapiens, UniProt Q5NUL3).
T1 construct: expressed in transfected cells
T1 sequence (Q5NUL3 1-361): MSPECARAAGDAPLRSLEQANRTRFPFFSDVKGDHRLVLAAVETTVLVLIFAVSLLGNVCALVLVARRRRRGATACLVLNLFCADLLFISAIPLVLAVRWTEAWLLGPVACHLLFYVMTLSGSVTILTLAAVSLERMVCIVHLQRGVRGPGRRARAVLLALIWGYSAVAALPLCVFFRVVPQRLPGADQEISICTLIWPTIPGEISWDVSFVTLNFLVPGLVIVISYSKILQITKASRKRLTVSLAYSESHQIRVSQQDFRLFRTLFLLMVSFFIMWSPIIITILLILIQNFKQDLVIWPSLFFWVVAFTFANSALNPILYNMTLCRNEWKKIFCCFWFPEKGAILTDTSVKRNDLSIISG
The experiment can be described thus: Human GPR120 calcium flux assay, Procedure Calcium A (2500 cells/well). In short, it runs like this: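 HEK293 cells stably expressing human GPR120 short isoform (NM_001195755.1), 2500 cells/well, serum-starved 1 h at 37 °C and loaded with Fluo-4 NW plus probenecid. FLIPR fluorescence read for 300 s after compound addition; response = Fmax−Fmin. EC50 from four-parameter concentration–response fit.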
(In general: A change in cytosolic calcium serves as a functional read-out for many receptors and channels.)

Experiment [2] concerns the target T1, Human GPR120 short form. The experiment can be described thus: Human GPR120 calcium flux assay, Procedure Calcium B (4200 cells/well). In short, it runs like this:
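Agonist EC50 came from a four-parameter fit of RFU (Fmax−Fmin) read over 300 s on FLIPR. Cells were HEK293 stably transfected with human GPR120 (NM_001195755.1) at 4200 per well, serum-starved 1 h and loaded with Fluo-4 NW dye with probenecid before ligand addition.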

In another experiment the target is T2, human GPR40 (Homo sapiens, UniProt O14842).
T2 construct: expressed in transfected cells
T2 sequence (O14842 whole entry): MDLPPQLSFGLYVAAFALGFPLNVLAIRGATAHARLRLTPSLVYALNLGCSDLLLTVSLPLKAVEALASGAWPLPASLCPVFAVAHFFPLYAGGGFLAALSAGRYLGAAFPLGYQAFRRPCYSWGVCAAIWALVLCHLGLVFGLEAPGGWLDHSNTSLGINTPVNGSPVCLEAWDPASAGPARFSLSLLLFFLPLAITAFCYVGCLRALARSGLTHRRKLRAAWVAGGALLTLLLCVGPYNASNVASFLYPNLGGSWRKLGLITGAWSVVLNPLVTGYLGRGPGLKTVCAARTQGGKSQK
Put plainly: GPR40 calcium flux assay, human GPR40. Conditions: HEK293 cells stably expressing GPR40; table does not say human or rat. In short, it runs like this: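 Cells preincubated 1 h at 37° C. in HBSS, 20 mM HEPES, 0.1% BSA, then Fluo 8 calcium dye 30 min at 37° C. and 15 min at room temperature.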

Broadly, the EC50 is the concentration giving half of the maximal effect. With `O=C(O)CCc1ccc(OCC2=C(c3ccc(Cl)cc3)CCCC2)c2c1CCC2` [Compound 514, 3-[7-[[2-(4-chlorophenyl)cyclohexen-1-yl]methoxy]indan-4-yl]Propanoic Acid], the EC50 at Human GPR120 short form [1] is 340 nM; at Human GPR120 short form [2], 53 nM; on human GPR40, more than 5000 nM.

`Cc1ccc(C2=C(COc3ccc(CCC(=O)O)c(C)c3C)CCC2)cc1C` [Compound 106, 3-(4-((2-(3,4-dimethylphenyl)cyclopent-1-en-1-yl)methoxy)-2,3-dimethylphenyl)Propanoic Acid]: the results for the EC50 on Human GPR120 short form [1], at Human GPR120 short form [2] and at human GPR40 were 572 nM, 567 nM and more than 5000 nM, respectively.

On to `Cc1ccc(C2=C(COc3ccc(CCC(=O)O)c(F)c3F)CCC2)c(C)c1` [Compound 72, 3-(4-((2-(2,4-dimethylphenyl)cyclopent-1-en-1-yl)methoxy)-2,3-difluorophenyl)Propanoic Acid], for which the EC50 is 658 nM at Human GPR120 short form [1], 245 nM at Human GPR120 short form [2] and more than 5000 nM on human GPR40.

Take `Cc1c(CCC(=O)O)ccc(OCC2=C(c3cccc(Cl)c3)CCCC2)c1C` [Compound 509, 3-[4-[[2-(3-chlorophenyl)cyclohexen-1-yl]methoxy]-2,3-dimethyl-phenyl]Propanoic Acid]: the EC50 is 963 nM on Human GPR120 short form [1], 414 nM on Human GPR120 short form [2] and more than 10000 nM at human GPR40.

For `Cc1cc(OCC2=C(c3ccc(Cl)cc3)CCC2)ccc1CCC(=O)O` [Compound 131, 3-[4-[[2-(4-chlorophenyl)cyclopenten-1-yl]methoxy]-2-methyl-phenyl]Propanoic Acid], the EC50 on Human GPR120 short form [1] turned out to be 533 nM; on Human GPR120 short form [2] it was 118 nM; on human GPR40, 1990 nM.

For `CCc1ccc(C2=C(COc3c(F)cc(CCC(=O)O)cc3F)CCC2)cc1` [Compound 16, 3-(4-((2-(4-ethylphenyl)cyclopent-1-en-1-yl)methoxy)-3,5-difluorophenyl)Propanoic Acid], the EC50 at Human GPR120 short form [1] is 198 nM; on Human GPR120 short form [2] it was 49 nM; at human GPR40, more than 5000 nM.

As to `Cc1ccc(C2=C(COc3ccc(CCC(=O)O)c(C)c3C)CCC2)c(C)c1` [Compound 82], the EC50 was 372 nM at Human GPR120 short form [1], 242 nM on Human GPR120 short form [2] and more than 5000 nM at human GPR40.

As to `Cc1c(CCC(=O)O)ccc(OCC2=C(c3ccc(Cl)cc3)CCCC2)c1C` [Compound 474, 3-[4-[[2-(4-chlorophenyl)cyclohexen-1-yl]methoxy]-2,3-dimethyl-phenyl]Propanoic Acid], the EC50 at Human GPR120 short form [1] was 428 nM; at Human GPR120 short form [2] it was 79 nM; at human GPR40, more than 5000 nM.

In the case of `Cc1ccc(C2=C(COc3ccc(CCC(=O)O)c(C)c3C)CCC2)cn1` [Compound 85, 3-(2,3-dimethyl-4-((2-(6-methylpyridin-3-yl)cyclopent-1-en-1-yl)methoxy)phenyl)Propanoic Acid], the values for the EC50 at Human GPR120 short form [1], on Human GPR120 short form [2] and at human GPR40 were 605 nM, 234 nM and more than 5000 nM, respectively.

In the case of `Cc1c(CCC(=O)O)ccc(OCC2=C(c3ccccc3)CCC2)c1C` [Compound 23, 3-(2,3-dimethyl-4-((2-phenylcyclopent-1-en-1-yl)methoxy)phenyl)Propanoic Acid], the EC50 on Human GPR120 short form [1] was 301 nM; on Human GPR120 short form [2], 114 nM; at human GPR40, more than 5000 nM.

As to `Cc1ccc(C2=C(COc3c(F)cc(CCC(=O)O)cc3F)CCC2)cc1C` [Compound 84, 3-(4-((2-(3,4-dimethylphenyl)cyclopent-1-en-1-yl)methoxy)-3,5-difluorophenyl)Propanoic Acid], the EC50 on Human GPR120 short form [1] is 1740 nM; on Human GPR120 short form [2] it was 290 nM; on human GPR40 it was more than 5000 nM.

Turning to `Cc1c(CCC(=O)O)ccc(OCC2=C(c3nccs3)CCC2)c1C` [Compound 79, 3-[2,3-dimethyl-4-[(2-thiazol-2-ylcyclopenten-1-yl)methoxy]phenyl]Propanoic Acid], the EC50 was 760 nM at Human GPR120 short form [1], 192 nM at Human GPR120 short form [2] and more than 5000 nM at human GPR40.

As for `O=C(O)CCc1ccc(OCC2=C(c3ccc(Cl)cc3)CCC(F)(F)C2)c(F)c1F` [Compound 503, 3-[4-[[2-(4-chlorophenyl)-5,5-difluoro-cyclohexen-1-yl]methoxy]-2,3-difluoro-phenyl]Propanoic Acid], the EC50 is 493 nM at Human GPR120 short form [1], 97 nM on Human GPR120 short form [2] and more than 5000 nM on human GPR40.

`Cc1cc(CCC(=O)O)ccc1OCC1=C(c2ccc(Cl)c(F)c2)CCC1` [Compound 159, 3-(4-((2-(4-chloro-3-fluorophenyl)cyclopent-1-en-1-yl)methoxy)-3-methylphenyl)Propanoic Acid]: the EC50 was 44 nM at Human GPR120 short form [1], 26 nM on Human GPR120 short form [2] and more than 5000 nM on human GPR40.

Regarding `Cc1ccccc1C1=C(COc2ccc(CCC(=O)O)c(C)c2C)CCC1` [Compound 132, 3-[2,3-dimethyl-4-[[2-(o-tolyl)cyclopenten-1-yl]methoxy]phenyl]Propanoic Acid], the EC50 on Human GPR120 short form [1] was 1090 nM; on Human GPR120 short form [2] it was 409 nM; on human GPR40, more than 5000 nM.

Consider `Cc1ccc(C2=C(COc3c(F)cc(CCC(=O)O)cc3F)CCC2)cc1` [Compound 95, 3-(3,5-difluoro-4-((2-(p-tolyl)cyclopent-1-en-1-yl)methoxy)phenyl)Propanoic Acid], for which the EC50 on Human GPR120 short form [1] is 378 nM; on Human GPR120 short form [2] it was 32 nM; on human GPR40 it was more than 5000 nM.

As for `Cc1ccc(C2=C(COc3ccc(CCC(=O)O)c(C)c3C)CCC2)cc1N` [Compound 134, 3-(4-((2-(3-amino-4-methylphenyl)cyclopent-1-en-1-yl)methoxy)-2,3-dimethylphenyl)Propanoic Acid], the EC50 is 2000 nM on Human GPR120 short form [1], 1430 nM on Human GPR120 short form [2] and more than 5000 nM on human GPR40.

On to `Cc1ccc(C2=C(COc3ccc(CCC(=O)O)c(F)c3F)CCC2)cc1F` [Compound 78, 3-(2,3-difluoro-4-((2-(3-fluoro-4-methylphenyl)cyclopent-1-en-1-yl)methoxy)phenyl)Propanoic Acid], for which the EC50 at Human GPR120 short form [1] is 94 nM; on Human GPR120 short form [2], 34 nM; at human GPR40, more than 5000 nM.

As for `Cc1ccc(C2=C(COc3ccc(CCC(=O)O)c(F)c3F)CCC2)cc1C` [Compound 83, 3-(4-((2-(3,4-dimethylphenyl)cyclopent-1-en-1-yl)methoxy)-2,3-difluorophenyl)Propanoic Acid], the EC50 on Human GPR120 short form [1] is 590 nM; at Human GPR120 short form [2], 143 nM; on human GPR40, more than 5000 nM.

As to `Cc1ccc(C2=C(COc3ccc(CCC(=O)O)c(F)c3F)CCC2)cc1N` [Compound 93, 3-(4-((2-(3-amino-4-methylphenyl)cyclopent-1-en-1-yl)methoxy)-2,3-difluorophenyl)Propanoic Acid], the EC50 at Human GPR120 short form [1] was 427 nM; on Human GPR120 short form [2], 643 nM; at human GPR40, more than 5000 nM.

Take `O=C(O)CCc1ccc(OCC2=C(c3ccc(Cl)cc3)CCC2)cc1` [Compound 153, 3-[4-[[2-(4-chlorophenyl)cyclopenten-1-yl]methoxy]phenyl]Propanoic Acid]: the EC50 amounted to 319 nM at Human GPR120 short form [1], 23 nM on Human GPR120 short form [2] and 2950 nM on human GPR40.

Take `Cc1c(CCC(=O)O)ccc(OCC2=C(c3ccc(Cl)nc3)CCC2)c1C` [Compound 158, 3-(4-((2-(6-chloropyridin-3-yl)cyclopent-1-en-1-yl)methoxy)-2,3-dimethylphenyl)Propanoic Acid]: the figures for the EC50 at Human GPR120 short form [1], at Human GPR120 short form [2] and at human GPR40 were 234 nM, 133 nM and more than 5000 nM, respectively.

Regarding `CCc1ccc(C2=C(COc3ccc(CCC(=O)O)c(C)c3C)CCC2)cc1` [Compound 27, 3-(4-((2-(4-ethylphenyl)cyclopent-1-en-1-yl)methoxy)-2,3-dimethylphenyl)Propanoic Acid], the EC50 on Human GPR120 short form [1] is 256 nM; on Human GPR120 short form [2] it was 58 nM; on human GPR40, more than 5000 nM.

`O=C(O)CCc1ccc(OCC2=C(c3ccc(Cl)cc3)CCC2)c(F)c1` [Compound 149, 3-[4-[[2-(4-chlorophenyl)cyclopenten-1-yl]methoxy]-3-fluoro-phenyl]Propanoic Acid]: the EC50 on Human GPR120 short form [1] is 128 nM; on Human GPR120 short form [2], 24 nM; at human GPR40 it was more than 10000 nM.

Turning to `Cc1ccc(C2=C(COc3c(F)cc(CCC(=O)O)cc3F)CCC2)cc1[N+](=O)[O-]` [Compound 109, 3-(3,5-difluoro-4-((2-(4-methyl-3-nitrophenyl)cyclopent-1-en-1-yl)methoxy)phenyl)Propanoic Acid], the EC50 on Human GPR120 short form [1] was 959 nM; on Human GPR120 short form [2], 1290 nM; at human GPR40, more than 5000 nM.

For `Cc1c(CCC(=O)O)ccc(OCC2=C(c3ccccc3)CCCC2)c1C` [Compound 472, 3-[2,3-dimethyl-4-[(2-phenylcyclohexen-1-yl)methoxy]phenyl]Propanoic Acid], the EC50 on Human GPR120 short form [1] was 406 nM; on Human GPR120 short form [2], 32 nM; at human GPR40, more than 5000 nM.
